Reference: PMC11939889, “Efficient Incorporation of DOPA into Proteins Free from Competition with Endogenous Translation Termination Machinery” (Biomolecules, 2025)

Target: T1, DOPARS (Methanocaldococcus jannaschii, UniProt Q57834, D158A/D286A/E220K/F261S/H283P/H70A/I159A/L282P/L65E/M285R/N268D/P284L/Y119F)
T1 construct: gene tyrS
Assay: isothermal titration calorimetry
Type: binding

T1 sequence (Q57834 whole entry L65E/H70A/Y119F/D158A/I159A/E220K/F261S/N268D/L282P/H283P/P284L/M285R/D286A): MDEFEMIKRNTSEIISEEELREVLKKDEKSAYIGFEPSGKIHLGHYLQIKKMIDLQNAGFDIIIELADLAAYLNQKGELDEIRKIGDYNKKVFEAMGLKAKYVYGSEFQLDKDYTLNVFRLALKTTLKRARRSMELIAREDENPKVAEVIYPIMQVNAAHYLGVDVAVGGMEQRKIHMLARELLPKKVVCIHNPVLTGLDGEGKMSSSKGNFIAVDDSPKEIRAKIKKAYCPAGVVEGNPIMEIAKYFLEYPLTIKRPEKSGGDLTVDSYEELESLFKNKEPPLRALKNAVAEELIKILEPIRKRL

In the case of `N[C@@H](Cc1ccc(O)c(O)c1)C(=O)O` [DOPA, 3,4-Dihydroxy-L-phenylalanine], the Kd is reported as 11.7 µM.
